{"source": "patent EP1074545A1", "about": "“ISOQUINOLINESULFONAMIDE DERIVATIVES AND DRUGS CONTAINING THE SAME AS THE ACTIVE INGREDIENT” (Hidaka, Hiroyoshi, priority 1998, dated 1999)", "test_system": "HIV-infected cells", "experiment": "p24 protein production inhibiting effect (in vitro), quantitation of p24 protein by ELISA", "type": "cell-based", "conditions": "for content of p24 protein, Day 1: control 569542; for content of p24 protein, Day 5: control 902226; for content of p24 protein, Day 0: control 0", "protocol": "p24 Protein Production Inhibiting Effect (in vitro)\nQuantitation of p24 protein was conducted by ELISA.\nHIV-infected cells were lysed in a lysis buffer, and were poured in predetermined constant aliquots into the individual wells of a 96-well microplate. Subsequent to adsorption of an antigen, a solution of a biotinylated anti-p24 monoclonal antibody was added. A streptavidin-labeled peroxidase was added, followed by the addition of a substrate for staining. One, three and five days later or 2 and 4 days later, a terminating solution was added to terminate the reaction. Concerning each of the wells, the absorbance at 450 nm was measured to determine the content of p24 protein in the well.", "key": {"[1]": {"conditions": "Table 5, compound at 1.60 µg/mℓ, control 349386"}, "[2]": {"conditions": "Table 5, compound at 1.60 µg/mℓ, control 435119"}}, "note": "Structures can show the parent of a compound that is named as a salt.", "data": [{"smiles": "O=S(=O)(c1cccc2c(O)nccc12)N1CCCNCC1", "note": "[Example 6, 1-(1-Hydroxy-5-isoquinolinesulfonyl)hexahydro-1H-1,4-diazepine·monohydrochloride]", "values": [{"measurement": "content of p24 protein, Day 1", "setting": "Table 1, compound at 20 µg/m", "value": 551489, "unit": "pg/mL"}, {"measurement": "content of p24 protein, Day 2", "setting": "Table 1, compound at 20 µg/m, control 881594", "value": 645621, "unit": "pg/mL"}, {"measurement": "content of p24 protein, Day 5", "setting": "Table 1, compound at 20 µg/m", "value": 698489, "unit": "pg/mL"}]}, {"smiles": "CCCCCCOc1ncc(C)c2c(S(=O)(=O)N3CCCNCC3)cccc12", "note": "[Example 14, 1-(1-n-Hexyloxy-4-methyl-5-isoquinolinesulfonyl)hexahydro-1H-1,4-diazepine]", "values": [{"measurement": "content of p24 protein, Day 0", "setting": "Table 2, compound at 8 µg/mℓ", "value": 0, "unit": "pg/m"}, {"measurement": "content of p24 protein, Day 2", "setting": "Table 2, compound at 8 µg/mℓ, control 46732", "value": 1022, "unit": "pg/m"}, {"measurement": "content of p24 protein, Day 4", "setting": "Table 2, compound at 8 µg/mℓ, control 104484", "value": 0, "unit": "pg/m"}]}, {"smiles": "CCCCCCCCOc1ncc(C)c2c(S(=O)(=O)N3CCCNCC3)cccc12", "note": "[Example 20, 1-(4-Methyl-1-n-octyloxy-5-isoquinolinesulfonyl)hexahydro-1H-1,4-diazepine]", "values": [{"measurement": "content of p24 protein, Day 4", "setting": "Table 4, compound at 0.32 µg/mℓ, control 38991", "value": 31250, "unit": "pg/mL"}, {"measurement": "content of p24 protein, Day 2", "setting": "Table 4, compound at 0.32 µg/mℓ, control 58304.5", "value": 31250, "unit": "pg/mL"}]}, {"smiles": "CCCCCCCCCCCCCCCCCCOc1ncc(C)c2c(S(=O)(=O)N3CCCNCC3)cccc12", "note": "[Example 21, 1-(4-Methyl-1-n-octadecyloxy-5-isoquinolinesulfonyl)hexahydro-1H-1,4-diazepine]", "values": [{"measurement": "content of p24 protein, Day 4", "setting": "Table 4, compound at 0.16 µg/mℓ, control 38991", "value": 31250, "unit": "pg/mL"}, {"measurement": "content of p24 protein, Day 2", "setting": "Table 4, compound at 0.16 µg/mℓ, control 58304.5", "value": 31250, "unit": "pg/mL"}]}, {"smiles": "Cc1cnc(OC(C)C)c2cccc(S(=O)(=O)N3CCCNCC3)c12", "note": "[Example 22, 1-(1-Isopropyloxy-4-methyl-5-isoquinolinesulfonyl)hexahydro-1H-1,4-diazepine]", "values": [{"measurement": "content of p24 protein, Day 4", "setting": "Table 4, compound at 1.60 µg/mℓ, control 38991", "value": 20897, "unit": "pg/mL"}, {"measurement": "content of p24 protein, Day 2", "setting": "Table 4, compound at 1.60 µg/mℓ, control 58304.5", "value": 17405, "unit": "pg/mL"}]}, {"smiles": "CCCCC(CC)COc1ncc(C)c2c(S(=O)(=O)N3CCCNCC3)cccc12", "note": "(stereo not shown) [Example 25, 1-(1-(2-Ethyl)hexyloxy-4-methyl-5-isoquinolinesulfonyl)hexahydro-1H-1,4-diazepine]", "values": [{"measurement": "content of p24 protein, Day 4", "setting": "Table 4, compound at 4.00 µg/mℓ, control 38991", "value": 16416, "unit": "pg/mL"}, {"measurement": "content of p24 protein, Day 2", "setting": "Table 4, compound at 4.00 µg/mℓ, control 58304.5", "value": 25557, "unit": "pg/mL"}]}, {"smiles": "CCCCCCOc1nccc2c(S(=O)(=O)N3CCCNCC3)cccc12", "note": "[Example 28, 1-(1-Hexyloxy-5-isoquinolinesulfonyl)hexahydro-1H-1,4-diazepine]", "values": [{"measurement": "content of p24 protein, Day 4", "setting": "[1]", "value": 69877, "unit": "pg/mL"}, {"measurement": "content of p24 protein, Day 2", "setting": "[2]", "value": 156250, "unit": "pg/mL"}]}, {"smiles": "Cc1cncc2cccc(S(=O)(=O)N3CCNCC3)c12", "note": "[Example 29, 1-(4-Methyl-5-isoquinolinesulfonyl)piperazine]", "values": [{"measurement": "content of p24 protein, Day 0", "setting": "Table 2, compound at 0.32 µg/mℓ", "value": 0, "unit": "pg/m"}, {"measurement": "content of p24 protein, Day 2", "setting": "Table 2, compound at 0.32 µg/mℓ, control 46732", "value": 69877, "unit": "pg/m"}, {"measurement": "content of p24 protein, Day 4", "setting": "Table 2, compound at 0.32 µg/mℓ, control 104484", "value": 69877, "unit": "pg/m"}]}, {"smiles": "Cc1cnc(O)c2cccc(S(=O)(=O)N3CCCNC(C)C3)c12", "note": "(stereo not shown) [Example 36, 1-(1-Hydroxy-4-methyl-5-isoquinolinesulfonyl)-3-methylhexahydro-1H-1,4-diazepine·monohydrochloride]", "values": [{"measurement": "content of p24 protein, Day 4", "setting": "Table 5, compound at 3.20 µg/mℓ, control 349386", "value": 82082, "unit": "pg/mL"}, {"measurement": "content of p24 protein, Day 2", "setting": "Table 5, compound at 3.20 µg/mℓ, control 435119", "value": 104484, "unit": "pg/mL"}]}, {"smiles": "CNc1ncc(C)c2c(S(=O)(=O)N3CCCNCC3)cccc12", "note": "[Example 41, 1-(4-Methyl-1-N-methylamino-5-isoquinolinesulfonyl)hexahydro-1H-1,4-diazepine]", "values": [{"measurement": "content of p24 protein, Day 0", "setting": "Table 2, compound at 0.8 µg/mℓ", "value": 0, "unit": "pg/m"}, {"measurement": "content of p24 protein, Day 2", "setting": "Table 2, compound at 0.8 µg/mℓ, control 46732", "value": 82082, "unit": "pg/m"}, {"measurement": "content of p24 protein, Day 4", "setting": "Table 2, compound at 0.8 µg/mℓ, control 104484", "value": 66977, "unit": "pg/m"}]}, {"smiles": "C=CCOc1ncc(C)c2c(S(=O)(=O)N3CCCNCC3)cccc12", "note": "[Example 46, 1-(1-Allyloxy-4-methyl-5-isoquinolinesulfonyl)hexahydro-1H-1,4-diazepine]", "values": [{"measurement": "content of p24 protein, Day 4", "setting": "Table 5, compound at 8.00 µg/mℓ, control 349386", "value": 156250, "unit": "pg/mL"}, {"measurement": "content of p24 protein, Day 2", "setting": "Table 5, compound at 8.00 µg/mℓ, control 435119", "value": 233662, "unit": "pg/mL"}]}, {"smiles": "Cc1cnc(OCc2c(F)c(F)c(F)c(F)c2F)c2cccc(S(=O)(=O)N3CCCNCC3)c12", "note": "[Example 48, 1-(4-Methyl-1-pentafluorophenylmethyloxy-5-isoquinolinesulfonyl)hexahydro-1H-1,4-diazepine]", "values": [{"measurement": "content of p24 protein, Day 4", "setting": "[1]", "value": 297434, "unit": "pg/mL"}, {"measurement": "content of p24 protein, Day 2", "setting": "[2]", "value": 82082, "unit": "pg/mL"}]}, {"smiles": "Cc1cnc(O)c2cccc(S(=O)(=O)N3CCCNCC3C)c12", "note": "(stereo not shown) [Example 51, 1-(1-Hydroxy-4-methyl-5-isoquinolinesulfonyl)2-methylhexahydro-1H-1,4-diazepine·monohydrochloride]", "values": [{"measurement": "content of p24 protein, Day 1", "setting": "Table 1, compound at 10 µg/m", "value": 641752, "unit": "pg/mL"}, {"measurement": "content of p24 protein, Day 2", "setting": "Table 1, compound at 10 µg/m, control 881594", "value": 624989, "unit": "pg/mL"}, {"measurement": "content of p24 protein, Day 5", "setting": "Table 1, compound at 10 µg/m", "value": 566963, "unit": "pg/mL"}]}, {"smiles": "CCCCCCOc1ncc(C)c2c(S(=O)(=O)N3CCCNCC3C)cccc12", "note": "(stereo not shown) [Example 53, 1-(1-n-Hexyloxy-4-methyl-5-isoquinolinesulfonyl)2-methylhexahydro-1H-1,4-diazepine]", "values": [{"measurement": "content of p24 protein, Day 4", "setting": "Table 5, compound at 40.0 µg/mℓ, control 349386", "value": 233662, "unit": "pg/mL"}, {"measurement": "content of p24 protein, Day 2", "setting": "Table 5, compound at 40.0 µg/mℓ, control 435119", "value": 94822, "unit": "pg/mL"}]}, {"smiles": "O=S(=O)(c1cccc2cncc(F)c12)N1CCCNCC1", "note": "[Example 55, 1-(4-Fluoro-5-isoquinolinesulfonyl)hexahydro-1H-1,4-diazepine]", "values": [{"measurement": "content of p24 protein, Day 4", "setting": "Table 3, compound at 4 µg/mℓ, control 82079", "value": 59487, "unit": "pg/mL"}, {"measurement": "content of p24 protein, Day 2", "setting": "Table 3, compound at 4 µg/mℓ, control 104484", "value": 59487, "unit": "pg/mL"}]}, {"smiles": "Cc1cncc2c(S(=O)(=O)N3CCCNCC3)cccc12", "note": "[Example 66, 1-(4-Methyl-8-isoquinolinesulfonyl)hexahydro-1H-1,4-diazepine]", "values": [{"measurement": "content of p24 protein, Day 4", "setting": "Table 4, compound at 200 µg/mℓ, control 38991", "value": 20897, "unit": "pg/mL"}, {"measurement": "content of p24 protein, Day 2", "setting": "Table 4, compound at 200 µg/mℓ, control 58304.5", "value": 25557, "unit": "pg/mL"}]}]}
